Data: PubChem BioAssay AID1963839 (Molecular Pharmacology Branch, DTP, NCI, 2024)

System: 817829-284-R-J1-PDC complex spheroid viability
Assay: Anticancer human tumor 817829-284-R-J1-PDC patient-derived colon adenocarcinoma cell line growth inhibition [POLQ]
Conditions: for IC50: curve of first compound; for viability, T/C: stronger effect = lower value
Method: Multicellular complex tumor spheroid response to Polymerase (POL) inhibitors (novobiocin, ART-558, RP6685) in combination with a variety of drugs and investigational agents in selected tumor cell lines
The POL inhibitors (novobiocin, ART-558, and RP6685) were evaluated both individually and in combination with standard of care and investigational anticancer small molecules within a complex spheroid model of solid tumors. . Complex spheroids include a stromal component modeled by human endothelial cells (HUVEC) and fibroblasts modeled by human mesenchymal stem cells (MSCs). The concentration ranges selected for each drug and investigational agent were based upon clinically achievable concentrations if the clinical Cmax of the agent was known.
Compounds. The drugs and investigational agents: novobiocin (NSC847541), ART-558 (NSC835418), RP-6685 (NSC848927), peposertib (NSC802822), ceralasertib (NSC780249), elimusertib (NSC800525), camonsertib (NSC841442), AZD-1390 (NSC803789), olaparib (NSC753686), talazoparib (NSC767125), rucaparib (NSC756644), sotorasib (NSC818433), MRTX-1133 (NSC836407), SN-38 (NSC673596), topotecan (NSC609699), epotoside (NSC141540), doxorubicin (NSC123127), gemcitabine (NSC613327), 5-fluorouracil (NSC19893), paclitaxel (NSC125973), vemurafenib (NSC761431), MSA-2 (NSC828583), SN-011 (NSC837082), adavosertib (NSC754352), prexasertib (NSC758257), carboplatin (NSC241240) and oxaliplatin (NSC266046), were obtained from the National Cancer Institute (NCI) Developmental Therapeutics Program Chemical Repository (21). The FDA-approved anticancer drug set is available from the Developmental Therapeutics Program at https://dtp.cancer.gov/organization/dscb/obtaining/. […] The stock solutions were prepared in dimethyl sulfoxide (DMSO, Sigma-Aldrich, St. Louis, MO, cat. D2650), except for the platinum compounds which were prepared in saline (Quality Biological, Gaithersburg, MD, cat. 114-055-101), at 800-fold the tested concentration and stored at -70 degrees C prior to their use. All drugs and investigational agents were tested over a range starting from a high concentration at or near the clinical Cmax and decreasing in half-log increments. If the clinical Cmax for an agent had not been determined, the highest concentration tested was 10 microM, except for SN-38, which was tested at a high concentration of 1 microM.
Cell Culture. All cells were maintained in an incubator at 37 degrees C and 5% CO2 with 95% humidity. The PDC lines were cultured according to standard operating procedures established by the NCI PDMR (https://pdmr.cancer.gov). Table 3 of the manuscript, lists the cell lines along with the number of the three cell types plated to form the mct-spheroids and media for tumor cell growth. After thawing, all PDC lines, except 997537-175-T-J1-PDC and 415267-285-R-J2-PDC, were cultured in Matrigel-coated flasks prepared with a working solution of 1X Ham's F-12 nutrient mix, without supplementation (Thermo Fisher Scientific, cat. 11765054), 100 U/mL penicillin-streptomycin (Thermo Fisher Scientific, cat. 15140122), and 2.5% Matrigel (Corning Inc., Corning, NY, cat. 354248) for the first three passages. The two PDC lines 997537-175-T-J1-PDC and 415267-285-R-J2-PDC were cultured on uncoated flasks. The 857933-349-R-J2-PDC line was cultured in 6C/Colon 1B media containing advanced DMEM/F-12 (Thermo Fisher Scientific, cat. 12634028), 10 mM HEPES (Thermo Fisher Scientific, cat. 15630080), 1X GlutaMAX supplement (Thermo Fisher Scientific, cat. 35050061), 0.1 mg/mL primocin (InvivoGen, San Diego, CA, cat. ant-pm-2), 10% defined fetal bovine serum, heat inactivated (HyClone Laboratories Inc., Logan, UT, cat. SH30070.03HI), 50% L-WRN conditioned media (ATCC, cat. CRL-3276), 1.25 mM N-Acetyl-L-cysteine (Sigma-Aldrich, cat. A9165), 10 mM nicotinamide (Sigma-Aldrich, cat. N0636), 1X B-27 supplement (Thermo Fisher Scientific, cat. 17504044), 1X N-2 supplement (Thermo Fisher Scientific, cat. […]

[1] = second compound 0.0316 µM, first compound 0.0316 µM
[2] = second compound 0.0316 µM, first compound 0.1 µM
[3] = second compound 0.1 µM, first compound 0.0316 µM
[4] = second compound 0.1 µM, first compound 0.1 µM
[5] = second compound 0.316 µM, first compound 0.0316 µM
[6] = second compound 0.316 µM, first compound 0.1 µM
[7] = second compound 1 µM, first compound 0.0316 µM
[8] = second compound 1 µM, first compound 0.1 µM
[9] = second compound 3.16 µM, first compound 0.0316 µM
[10] = second compound 3.16 µM, first compound 0.1 µM
[11] = second compound 10 µM, first compound 0.0316 µM
[12] = second compound 10 µM, first compound 0.1 µM
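Note: spheroids exposed to compounds for 7 days.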
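Throughout, for viability, T/C: 100% = DMSO vehicle-treated spheroids.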

Cn1ncnc1[C@H]1c2n[nH]c(=O)c3cc(F)cc(c23)N[C@@H]1c1ccc(F)cc1 + COC1C(OC(N)=O)C(O)C(Oc2ccc3c(O)c(NC(=O)c4ccc(O)c(CC=C(C)C)c4)c(=O)oc3c2C)OC1(C)C
IC50 (second compound 0.0316 µM): 31 nM
IC50 (second compound 0.1 µM): 4.86 nM
IC50 (second compound 0.316 µM): 19.8 nM
IC50 (second compound 1 µM): 24 nM
IC50 (second compound 3.16 µM): 10.2 nM
IC50 (second compound 10 µM): 31 nM
viability, T/C (second compound 0.0316 µM, first compound 0.000316 µM): 107%
viability, T/C (second compound 0.0316 µM, first compound 0.001 µM): 63.2%
viability, T/C (second compound 0.0316 µM, first compound 0.00316 µM): 72.3%
viability, T/C (second compound 0.0316 µM, first compound 0.01 µM): 62.6%
viability, T/C [1]: 55.5%
viability, T/C [2]: 36.5%
viability, T/C (second compound 0.1 µM, first compound 0.000316 µM): 103%
viability, T/C (second compound 0.1 µM, first compound 0.001 µM): 109%
viability, T/C (second compound 0.1 µM, first compound 0.00316 µM): 52.9%
viability, T/C (second compound 0.1 µM, first compound 0.01 µM): 60.4%
viability, T/C [3]: 39.9%
viability, T/C [4]: 35.4%
viability, T/C (second compound 0.316 µM, first compound 0.000316 µM): 104%
viability, T/C (second compound 0.316 µM, first compound 0.001 µM): 94.9%
viability, T/C (second compound 0.316 µM, first compound 0.00316 µM): 74.4%
viability, T/C (second compound 0.316 µM, first compound 0.01 µM): 65.3%
viability, T/C [5]: 38%
viability, T/C [6]: 36.2%
viability, T/C (second compound 1 µM, first compound 0.000316 µM): 94.9%
viability, T/C (second compound 1 µM, first compound 0.001 µM): 107%
viability, T/C (second compound 1 µM, first compound 0.00316 µM): 85.4%
viability, T/C (second compound 1 µM, first compound 0.01 µM): 65%
viability, T/C [7]: 47.8%
viability, T/C [8]: 31.8%
viability, T/C (second compound 3.16 µM, first compound 0.000316 µM): 86.8%
viability, T/C (second compound 3.16 µM, first compound 0.001 µM): 102%
viability, T/C (second compound 3.16 µM, first compound 0.00316 µM): 97.7%
viability, T/C (second compound 3.16 µM, first compound 0.01 µM): 50.1%
viability, T/C [9]: 49.9%
viability, T/C [10]: 40.3%
viability, T/C (second compound 10 µM, first compound 0.000316 µM): 137%
viability, T/C (second compound 10 µM, first compound 0.001 µM): 124%
viability, T/C (second compound 10 µM, first compound 0.00316 µM): 69.8%
viability, T/C (second compound 10 µM, first compound 0.01 µM): 71.6%
viability, T/C [11]: 67.2%
viability, T/C [12]: 22.3%

O=c1[nH]cc(F)c(=O)[nH]1 + Cc1cccc(N(C)C(=O)C2C(O)CCN2c2nc(C)cc(C(F)(F)F)c2C#N)c1
IC50 (second compound 0.0316 µM): 1980 nM
IC50 (second compound 0.1 µM): 3120 nM
IC50 (second compound 0.316 µM): > 10000 nM
IC50 (second compound 1 µM): 3100 nM
IC50 (second compound 3.16 µM): 3650 nM
IC50 (second compound 10 µM): 2530 nM
viability, T/C [1]: 98.2%
viability, T/C [2]: 119%
viability, T/C (second compound 0.0316 µM, first compound 0.316 µM): 68.2%
viability, T/C (second compound 0.0316 µM, first compound 1 µM): 72.5%
viability, T/C (second compound 0.0316 µM, first compound 3.16 µM): 34.8%
viability, T/C (second compound 0.0316 µM, first compound 10 µM): 38.9%
viability, T/C [3]: 91.4%
viability, T/C [4]: 126%
viability, T/C (second compound 0.1 µM, first compound 0.316 µM): 110%
viability, T/C (second compound 0.1 µM, first compound 1 µM): 75.4%
viability, T/C (second compound 0.1 µM, first compound 3.16 µM): 55.9%
viability, T/C (second compound 0.1 µM, first compound 10 µM): 42.1%
viability, T/C [5]: 92.1%
viability, T/C [6]: 98%
viability, T/C (second compound 0.316 µM, first compound 0.316 µM): 106%
viability, T/C (second compound 0.316 µM, first compound 1 µM): 74.4%
viability, T/C (second compound 0.316 µM, first compound 3.16 µM): 55.4%
viability, T/C (second compound 0.316 µM, first compound 10 µM): 45.8%
viability, T/C [7]: 72.5%
viability, T/C [8]: 118%
viability, T/C (second compound 1 µM, first compound 0.316 µM): 98.8%
viability, T/C (second compound 1 µM, first compound 1 µM): 75.1%
viability, T/C (second compound 1 µM, first compound 3.16 µM): 52.7%
viability, T/C (second compound 1 µM, first compound 10 µM): 39.9%
viability, T/C [9]: 89.9%
viability, T/C [10]: 112%
viability, T/C (second compound 3.16 µM, first compound 0.316 µM): 102%
viability, T/C (second compound 3.16 µM, first compound 1 µM): 77%
viability, T/C (second compound 3.16 µM, first compound 3.16 µM): 54.7%
viability, T/C (second compound 3.16 µM, first compound 10 µM): 36.3%
viability, T/C [11]: 101%
viability, T/C [12]: 91.8%
viability, T/C (second compound 10 µM, first compound 0.316 µM): 94.1%
viability, T/C (second compound 10 µM, first compound 1 µM): 60.4%
viability, T/C (second compound 10 µM, first compound 3.16 µM): 52%
viability, T/C (second compound 10 µM, first compound 10 µM): 42.6%
